“And” between values parts separate entries of the source, which are not always exact repeats. Equal values may be shown once. Read-outs that look alike come from different tables or passages of the source.
What was measured:
[1] = Water activity of drug substance and lyophilizate; format: physicochemical; settings: Sample numbers I, II, III, listed as Drug substance (Monohydrate Form)
Excerpt: (§1) The moisture content and water activity of the drug substance as well as the lyophilizate was checked to ensure the retention of the crystalline monohydrate form of the drug substance in the Lyophilizate. Water activity instruments measure the amount of free (sometimes referred to as unbound or active) water present in the sample and KF titration measures the total water in a sample.

[2] = Excerpt: The change of description of Cyclophosphamide monohydrate at various temperatures was studied by exposing the drug to different temperatures under constant vacuum and details are given in Tables 6 & 7: […]
[3] = Moisture content (KF titration) of drug substance and lyophilizate; format: physicochemical; settings: Sample numbers I, II, III, listed as Drug substance (Monohydrate Form)
Excerpt: as §1

[4] = remark: listed apart in the source
Procedure: The solubility of Cyclophosphamide monohydrate in various solvents was checked. The quantity of solvent consumed for dissolving 100 mg of Cyclophosphamide monohydrate is given below: […]

[5] = Vacuum 1000 mtorr, +25° C. (5 hrs)
[6] = Vacuum 1000 mtorr, −2° C. (12 hrs)
[7] = Vacuum 1000 mtorr, −15° C. (19 hrs)
[8] = Vacuum 1000 mtorr, −25° C. (12 hrs)
[9] = Vacuum 1000 mtorr, −40° C. (5 hrs)

Cl.[O-][P+]1(N(CCCl)CCCl)NCCCO1 (stereo not drawn) [Cyclophosphamide monohydrate, 2-[bis(2-chloroethyl)amino]tetrahydro-2H-1,3,2-oxazaphosphorine 2-oxide monohydrate]
Water Activity (aw) [1]: 0.374 and 0.372 and 0.373 | % Moisture content ([2]; Initial): 6.87% | Observation for Description ([2]; Initial): Powder | % Moisture content [2, 5]: 2.94% | Observation for Description [2, 5]: Liquid | % Moisture content [2, 6]: 4.52% | Observation for Description [2, 6]: Sticky | % Moisture content [2, 7]: 6.29% | Observation for Description [2, 7]: Powder | % Moisture content [2, 8]: 6.27% | Observation for Description [2, 8]: Powder | % Moisture content [2, 9]: 6.23% | Observation for Description [2, 9]: Powder | Description ([2]; −10 °C, 350 mtorr and 6 hours): Powder | Moisture Content (%) ([2]; −10 °C, 350 mtorr and 6 hours): 7.56% | Description ([2]; −15 °C, 350 mtorr and 12 hours): Powder | Moisture Content (%) ([2]; −15 °C, 350 mtorr and 12 hours): 6.99% | Description ([2]; −25 °C, 150 mtorr and 6 hours): Powder | Moisture Content (%) ([2]; −25 °C, 150 mtorr and 6 hours): 6.87% | Description ([2]; −25 °C, 150 mtorr and 15 hours): Sticky Mass | Moisture Content (%) ([2]; −25 °C, 150 mtorr and 15 hours): 4.55% | Description ([2]; −25 °C, 280 mtorr and 12 hours): Powder | Moisture Content (%) ([2]; −25 °C, 280 mtorr and 12 hours): 6.51% | Moisture Content (%) [3]: 6.64% and 6.75% and 6.72% | quantity of solvent consumed for dissolving 100 mg ([4]; Acetone): 0.4 mL | quantity of solvent consumed for dissolving 100 mg ([4]; Acetonitrile): 0.5 mL | quantity of solvent consumed for dissolving 100 mg ([4]; Dimethyacetamide): 2.0 mL | quantity of solvent consumed for dissolving 100 mg ([4]; Ethanol): 0.5 mL | quantity of solvent consumed for dissolving 100 mg ([4]; Tertiary butyl alcohol): 0.5 mL | quantity of solvent consumed for dissolving 100 mg ([4]; Water): 2.45 mL
